The text below walks through data of US10780092B2, “Fused pyrazine derivatives useful as soluble guanylate cyclase stimulators” (Merck Sharp & Dohme Corp., priority 2016, dated 2020).

One assay concerns the target sGC α1/β1 heterodimer (Homo sapiens (Human), UniProt Q02108+Q02153). The assay is described as follows: Cell-based sGC functional assay (CASA assay), cGMP by HTRF. The following applies: CHO-K1/sGC cells; for Emax: CHO-K1, cGMP production as percentage of maximum of compound A (set to 100%), read-out: % Activation; for EC50: inflection point of cGMP production, 4P fit, read-out: IP. Put shortly:
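CHO-K1 cells stably expressing human sGC α1/β1, with 0.5 mM IBMX, pre-incubated ±1 μM DETA-NO 30 min at 25° C, then compound 1 hr at 37° C (2.5% DMSO). cGMP by HTRF; activation as % of reference activator maximum, 4P fit giving inflection point and maximum […].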
(In general: TR-FRET usually uses a lanthanide donor and a delayed reading to cut background.)

The target in assay [1] is human recombinant sGC enzyme (Homo sapiens (Human), UniProt Q02108+Q02153). Nature of the assay: SEC competition binding assay with [3H] Compound B radioligand. To be noted: displacement of 1.6 nM [3H] Compound B, 24 h at 37° C. Put shortly:
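Recombinant human sGC incubated with 1.6 nM [3H] Compound B and test compounds for 24 h at 37° C. Buffer: 50 mM triethanolamine pH 7.4, 3 mM MgCl2, 0.025% BSA, 2 mM DTT, 300 μM DETA/NO, 400 μM GTP, 1% DMSO. Bound ligand separated by gel filtration and counted by scintillation; non-specific binding with 1 μM Compound B; Ki from one-site fit.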

As usually defined, the Ki is the dissociation constant of the complex between target and ligand, obtained from inhibition or displacement.

Regarding `CC1(c2cc(O)c(Cl)cn2)C(=O)Nc2nc(-c3cn4ccnc4c(Cc4cc(F)cc(F)c4F)n3)nc(N)c21` (stereo not drawn) [Example 103-B, 4-Amino-5-(5-chloro-4-hydroxypyridin-2-yl)-5-methyl-2-{8-[(2,3,5-trifluorophenyl)methyl]imidazo[1,2-a]pyrazin-6-yl}-5,7-dihydro-6H-pyrrolo[2,3-d]pyrimidin-6-one], on sGC α1/β1 heterodimer, the Emax stood at 78% and the EC50 came out at 0.231 µM. In assay [1], the inhibition constant Ki was 0.000175 µM.
With `CC1(c2ccc(Cl)c(O)c2)C(=O)Nc2nc(-c3cn4ncnc4c(CCC(F)(F)C(F)(F)F)n3)nc(NCCCC(F)(F)F)c21` (stereo not drawn) [Example 139-A, 5-(4-Chloro-3-hydroxy-phenyl)-5-methyl-2-(8-(3,3,4,4,4-pentafluoro-butyl)-[1,2,4]triazolo-[1,5-a]pyrazin-6-yl)-4-((4,4,4-trifluorobutyl)-amino)-5,7-dihydro-6H-pyrrolo[2,3-d]pyrimidin-6-one], at sGC α1/β1 heterodimer, the Emax was 68% and the EC50 was 0.349 µM. Further, the Ki in assay [1] stood at 0.00354 µM.
With `CC1(c2ccc(Cl)c(O)c2Cl)C(=O)Nc2nc(-c3cn4ccnc4c(CC4CCCCC4)n3)nc(N)c21` (stereo not drawn) [Example 69-A, 4-Amino-2-(8-(cyclohexylmethyl)imidazo[1,2-a]pyrazin-6-yl)-5-(2,4-dichloro-3-hydroxyphenyl)-5-methyl-5,7-dihydro-6H-pyrrolo[2,3-d]pyrimidin-6-one], at sGC α1/β1 heterodimer, the Emax amounted to 108% and the EC50 is 1.38 µM. Moreover, in assay [1], the Ki came out at 0.00347 µM.
The like results for `Cc1cnc(C2(C)C(=O)Nc3nc(-c4cn5ccnc5c(Cc5cccc(F)c5)n4)nc(N)c32)cc1O` (stereo not drawn) [Example 151-A, 4-Amino-2-{8-(3-fluorobenzyl)imidazo[1,2-a]pyrazin-6-yl}-5-(4-hydroxy-5-methylpyridin-2-yl)-5-methyl-5,7-dihydro-6H-pyrrolo[2,3-d]pyrimidin-6-one] were, in that order, 84%, 1.79 µM and 0.000155 µM.
The like results for `CC1(c2cc(O)c(C#N)c(F)c2)C(=O)Nc2nc(-c3cn4ccnc4c(Cc4cc(F)ccc4F)n3)nc(N)c21` (stereo not drawn) [Example 101-B, 4-(4-Amino-2-{8-[(2,5-difluorophenyl)methyl]imidazo[1,2-a]pyrazin-6-yl}-5-methyl-6-oxo-6,7-dihydro-5H-pyrrolo[2,3-d]pyrimidin-5-yl)-2-fluoro-6-hydroxybenzonitrile] were, in that order, 53%, 0.282 µM and 0.000162 µM.
The like results for `CC1(c2ccc(F)c(O)c2)C(=O)Nc2nc(-c3cn4ccnc4c(CCC4CCCCC4)n3)nc(N)c21` (stereo not drawn) [Example 86-B, 4-Amino-2-(8-(2-cyclohexylethyl)imidazo[1,2-a]pyrazin-6-yl)-5-(4-fluoro-3-hydroxyphenyl)-5-methyl-5,7-dihydro-6H-pyrrolo[2,3-d]pyrimidin-6-one] were, in that order, 122%, 0.166 µM and 0.00222 µM.
Consider `CCCCc1nc(-c2nc(N)c3c(n2)NC(=O)C3(C)c2cc(O)c(Cl)cn2)cn2ccnc12` (stereo not drawn) [Example 72-B, 4-Amino-2-(8-butylimidazo[1,2-a]pyrazin-6-yl)-5-(5-chloro-4-hydroxypyridin-2-yl)-5-methyl-5,7-dihydro-6H-pyrrolo[2,3-d]pyrimidin-6-one], for which, on sGC α1/β1 heterodimer, the Emax came out at 84% and the EC50 was found to be 3.46 µM. For the same compound, the Ki in assay [1] stood at 0.00462 µM.
For `CC1(c2ccc(Cl)c(O)c2)C(=O)Nc2nc(-c3cn4ccnc4c(Cc4ccc(F)cc4F)n3)nc(N)c21` (stereo not drawn) [Example 91-A, 4-Amino-5-(4-chloro-3-hydroxyphenyl)-2-{8-[(2,4-difluorophenyl)methyl]imidazo[1,2-a]pyrazin-6-yl}-5-methyl-5,7-dihydro-6H-pyrrolo[2,3-d]pyrimidin-6-one], in that order: 141%, 0.075 µM and 0.000199 µM.
The like results for `CC1(c2ccc(Cl)c(O)c2)C(=O)Nc2nc(-c3cn4ncnc4c(CCCC(F)(F)F)n3)nc(N)c21` (stereo not drawn) [Example 87-A, 4-Amino-5-(4-chloro-3-hydroxyphenyl)-5-methyl-2-(8-(4,4,4-trifluorobutyl)-[1,2,4]triazolo[1,5-a]pyrazin-6-yl)-5,7-dihydro-6H-pyrrolo[2,3-d]pyrimidin-6-one] were, in that order, 111%, 0.935 µM and 0.0028 µM.
The like results for `CC1(c2cccc(O)c2)C(=O)Nc2nc(-c3cn4ccnc4c(Cc4ccc(F)cc4F)n3)nc(N)c21` (stereo not drawn) [Example 34-B, 4-Amino-2-{8-[(2,4-difluorophenyl)methyl]imidazo[1,2-a]pyrazin-6-yl}-5-(3-hydroxyphenyl)-5-methyl-5,7-dihydro-6H-pyrrolo[2,3-d]pyrimidin-6-one] were, in that order, 111%, 0.243 µM and 0.000317 µM.
As to `CC1(c2cccc(O)c2)C(=O)Nc2nc(-c3cn4ccnc4c(Cc4ccc(Cl)cc4)n3)nc(N)c21` (stereo not drawn) [Example 56-B, 4-Amino-2-{8-[(4-chlorophenyl)methyl]imidazo[1,2-a]pyrazin-6-yl}-5-(3-hydroxyphenyl)-5-methyl-5,7-dihydro-6H-pyrrolo[2,3-d]pyrimidin-6-one], on sGC α1/β1 heterodimer, the Emax stood at 101% and the EC50 is 0.627 µM. In assay [1], the inhibition constant (Ki) was 0.00124 µM.
The like results for `CC(C)CCc1nc(-c2nc(N)c3c(n2)NC(=O)C3(C)c2cc(O)ccn2)cn2ncnc12` (stereo not drawn) [Example 119-B, 4-Amino-5-(4-hydroxypyridin-2-yl)-2-(8-isopentyl-[1,2,4]-triazolo[1,5-a]pyrazin-6-yl)-5-methyl-5,7-dihydro-6H-pyrrolo-[2,3-d]pyrimidin-6-one] were, in that order, 75%, 0.681 µM and 0.00276 µM.
For `CC1(c2ccc(Cl)c(O)c2)C(=O)Nc2nc(-c3cn4ccnc4c(Cc4ccc(F)cc4)n3)nc(N)c21` (stereo not drawn) [Example 30-A, 4-Amino-5-(4-chloro-3-hydroxyphenyl)-2-{8-[(4-fluorophenyl)methyl]imidazo[1,2-a]pyrazin-6-yl}-5-methyl-5,7-dihydro-6H-pyrrolo[2,3-d]pyrimidin-6-one], in that order: 88%, 0.866 µM and 0.000292 µM.
For `CC(C)CCc1nc(-c2nc(N)c3c(n2)NC(=O)C3(C)c2ccc(C(F)(F)F)c(O)c2)cn2ccnc12` (stereo not drawn) [Example 64-B, 4-Amino-5-(3-hydroxy-4-(trifluoromethyl)phenyl)-2-(8-isopentylimidazo[1,2-a]pyrazin-6-yl)-5-methyl-5,7-dihydro-6H-pyrrolo[2,3-d]pyrimidin-6-one], in that order: 125%, 1.32 µM and 0.00222 µM.
Consider `CC1(c2cc(O)c(C#N)c(Cl)c2)C(=O)Nc2nc(-c3cn4ncnc4c(CC4CCCCC4)n3)nc(N)c21` (stereo not drawn) [Example 150-A, 4-(4-amino-2-{8-(cyclohexylmethyl)-[1,2,4]triazolo[1,5-a]-pyrazin-6-yl}-5-methyl-6-oxo-6,7-dihydro-5H-pyrrolo-[2,3-d]pyrimidin-5-yl)-2-chloro-6-hydroxy-benzonitrile], for which, on sGC α1/β1 heterodimer, the Emax came to 96% and the EC50 amounted to 4.12 µM. Further, the Ki in assay [1] turned out to be 0.000989 µM.
The like results for `CC1(c2cc(O)c(Cl)c(F)c2)C(=O)Nc2nc(-c3cn4ncnc4c(Cc4ccccc4F)n3)nc(N)c21` (stereo not drawn) [Example 10-B, 4-Amino-5-(4-chloro-3-fluoro-5-hydroxyphenyl)-2-{8-[(2-fluorophenyl)methyl]-[1,2,4]triazolo[1,5-a]pyrazin-6-yl}-5-methyl-5,7-dihydro-6H-pyrrolo[2,3-d]pyrimidin-6-one] were, in that order, 132%, 0.025 µM and 0.000128 µM.
In the case of `CC1(c2cc(O)c(F)c(F)c2)C(=O)Nc2nc(-c3cn4ccnc4c(Cc4ccccc4F)n3)nc(N)c21` (stereo not drawn) [Example 9-B, 4-Amino-5-(3,4-difluoro-5-hydroxyphenyl)-2-{8-[(2-fluorophenyl)methyl]imidazo[1,2-a]pyrazin-6-yl}-5-methyl-5,7-dihydro-6H-pyrrolo[2,3-d]pyrimidin-6-one], on sGC α1/β1 heterodimer, the Emax worked out at 85% and the EC50 is 1.04 µM. The Ki in assay [1] came to 0.000126 µM.
As for `CC1(c2ccc(O)c(F)c2)C(=O)Nc2nc(-c3cn4ccnc4c(Cc4cccc(Cl)c4)n3)nc(N)c21` (stereo not drawn) [Example 126-B, 4-Amino-2-{8-[(3-chlorophenyl)methyl]-imidazo[1,2-a]pyrazin-6-yl}-5-(3-fluoro-4-hydroxy-phenyl)-5-methyl-5,7-dihydro-6H-pyrrolo-[2,3-d]pyrimidin-6-one], on sGC α1/β1 heterodimer, the Emax came out at 206% and the EC50 turned out to be 0.391 µM. Besides, the inhibition constant (Ki) in assay [1] worked out at 0.0011 µM.
For the compound `CC1(c2cccc(O)c2)C(=O)Nc2nc(-c3cn4ccnc4c(CCC4CCCCC4)n3)nc(N)c21` (stereo not drawn) [Example 83-B, 4-Amino-2-(8-(2-cyclohexylethyl)imidazo[1,2-a]pyrazin-6-yl)-5-(3-hydroxyphenyl)-5-methyl-5,7-dihydro-6H-pyrrolo[2,3-d]pyrimidin-6-one], at sGC α1/β1 heterodimer, the Emax worked out at 109% and the EC50 was 0.222 µM. Further, the Ki in assay [1] came out at 0.00512 µM.
The like results for `CC1(c2cc(O)c(C#N)c(F)c2)C(=O)Nc2nc(-c3cn4ncnc4c(CC4CCCCC4)n3)nc(N)c21` (stereo not drawn) [Example 15-B, 4-(4-Amino-2-(8-(cyclohexylmethyl)-[1,2,4]triazolo[1,5-a]pyrazin-6-yl)-5-methyl-6-oxo-6,7-dihydro-5H-pyrrolo[2,3-d]pyrimidin-5-yl)-2-fluoro-6-hydroxybenzonitrile] were, in that order, 107%, 0.771 µM and 0.000158 µM.
